Molecular target: T1, human sEH (Homo sapiens, UniProt P34913)
T1 sequence (P34913 1-555): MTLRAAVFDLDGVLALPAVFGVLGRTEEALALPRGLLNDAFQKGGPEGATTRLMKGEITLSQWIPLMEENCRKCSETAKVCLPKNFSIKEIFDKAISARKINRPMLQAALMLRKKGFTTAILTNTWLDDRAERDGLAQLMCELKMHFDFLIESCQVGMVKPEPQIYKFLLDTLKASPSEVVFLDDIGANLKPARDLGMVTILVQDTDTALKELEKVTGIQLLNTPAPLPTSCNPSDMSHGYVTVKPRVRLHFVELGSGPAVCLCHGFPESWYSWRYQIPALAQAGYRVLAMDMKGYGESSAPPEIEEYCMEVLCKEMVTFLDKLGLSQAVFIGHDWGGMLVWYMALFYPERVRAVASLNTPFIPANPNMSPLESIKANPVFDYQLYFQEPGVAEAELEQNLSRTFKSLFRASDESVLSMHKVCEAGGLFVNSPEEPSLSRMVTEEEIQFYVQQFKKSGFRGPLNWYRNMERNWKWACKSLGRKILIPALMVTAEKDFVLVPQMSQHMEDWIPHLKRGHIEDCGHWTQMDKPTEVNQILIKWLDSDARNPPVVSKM
Test: fluorescent substrate
Assay type: biochemical

| fold increase in potency relative to N4-methyl substituted analog 16c (human sEH IC50 ratio) [fold] | fold increase in potency relative to N4-unsubstituted analog 24c (human sEH IC50 ratio) [fold] | Compound | change fold |
| --- | --- | --- | --- |
| – | – | CC(=O)N1CCN(CCCCOc2ccc(NC(=O)NC34CC5CC(CC(C5)C3)C4)cc2)CC1 [Compound 29c, 1-(4-(4-(4-acetylpiperazin-1-yl)butoxy)phenyl)-3-adamantan-1-yl urea] | −2.9 |
| – | – | CC(C)(C)OC(=O)N1CCN(CCCCOc2ccccc2NC(=O)NC23CC4CC(CC(C4)C2)C3)CC1 [Compound 21a] | 191 |
| 5.4 | 47.2 | CC(=O)N1CCN(CCCOc2ccc(NC(=O)NC34CC5CC(CC(C5)C3)C4)cc2)CC1 [Compound 28c, 1-(4-(3-(4-acetylpiperazin-1-yl)propoxy)phenyl)-3-adamantan-1-ylurea] | – |
